# ChEMBL document CHEMBL1156829 (Proc Natl Acad Sci U S A, 2008)
# Experiments:
# [1] = system: Plasmodium falciparum; test: NOVARTIS: Inhibition of Plasmodium falciparum 3D7 (drug-susceptible) proliferation in erythrocyte-based infection assay; assay type: functional, organism-based; settings: Plasmodium falciparum, 3D7
# [2] = system: Plasmodium falciparum; test: NOVARTIS: Inhibition of Plasmodium falciparum W2 (drug-resistant) proliferation in erythrocyte-based infection assay; assay type: functional, organism-based; settings: Plasmodium falciparum, W2; read-out: EC50
# [3] = NOVARTIS: Cytotoxicity against human hepatocellular carcinoma cell line (Huh7); assay type: toxicity, cell-based, Huh-7; settings: Huh7 cells (hepatocellular carcinoma cell line)
SMILES,EC50 [1] [µM],EC50 [2] [µM],CC50 [3] [µM]
COc1ccc(/C=C2/SC(=Nc3ccccc3OC)NC2=O)cc1,0.0836,0.0384,19.8
COc1cc(Nc2cncc(-c3ccc(C(N)=O)cc3)n2)cc(OC)c1OC,0.0295,0.0501,25.3
CCC(CO)NCC(O)Cn1c2ccc(Cl)cc2c2cc(Cl)ccc21 (centres undefined),0.368,0.0406,20.1
C[n+]1ccc(C=Cc2ccc(Br)cc2)cc1,0.638,0.205,> 100
CCc1c(C#N)c(N)nc(SCC(=O)c2ccc(C)cc2C)c1C#N,0.308,0.196,> 100
O=C(CN1CCN(C(=O)c2ccco2)CC1)Nc1ccccc1Br,0.358,0.188,> 100
NC1=NC(c2ccccc2)N(c2ccccc2)C(N)=N1 (centres undefined),0.0823,0.204,> 100
OC(CNC1CCCCC1)Cn1c2ccc(Cl)cc2c2cc(Cl)ccc21 (centres undefined),0.333,0.116,57.3
Cc1ccc(-c2c[n+](Cc3ccc(Cl)cc3)c3n2CCC3)cc1,0.373,0.153,> 75.7
CC(=O)NCCc1nc2ccccc2n1Cc1ccc(C(C)C)cc1,0.764,0.0981,48.7
O=C(Nc1c(C(=O)Nc2cccc(Cl)c2)oc2ccccc12)c1cc(-c2ccccc2O)n[nH]1,0.272,0.0742,35.1
CC(=NNC(=O)c1ccc(C)cc1)c1ccccn1,0.35,0.209,> 100
FC(F)(F)c1ccccc1NC(=S)N1CCCN(c2nc3ccc(Cl)cc3s2)CC1,0.119,0.145,77.8
COc1cc(NC(C)CCCN(Cc2ccc(F)cc2)C(=O)C(C)(C)CCl)c2ncccc2c1 (centres undefined),0.469,< 0.00343,> 1.83
COc1ccc2[nH]c(SCC(=O)Nc3cccc(NC(=O)CSc4nc5cc(OC)ccc5[nH]4)n3)nc2c1,0.123,0.0954,> 51
COc1ccc(-c2c[n+](CC(=O)c3ccc(C)cc3)c3n2CCC3)cc1,0.745,0.2,> 100
Cc1ccc(-n2c(SCc3ccc(F)cc3)nnc2C(Cc2ccccc2)NC(=O)NC(C)(C)C)cc1 (centres undefined),0.33,0.125,> 62.3
CCn1c2ccccc2[n+]2c(C)cc(C)nc12,0.266,0.199,> 100
CCCOC(=O)C1=C(C)NC2=C(C(=O)CC(c3ccc(Cl)cc3)C2)C1c1ccc(Br)cc1 (centres undefined),0.498,0.198,> 100
CSCCC(C(=O)NCC(=O)O)N1C(=O)c2cc(NC(C)=O)ccc2NC(=O)[C@@H]1c1ccccc1 (some centres undefined),> 1.25,0.0153,> 7.76
CCCCCC(=O)Oc1ccccc1-c1nc2ccccn2c1NC(C)(C)CC(C)(C)C,0.701,0.0195,> 10
CCCCN(CC)CCNC(=O)C1c2ccccc2C(=O)N(Cc2ccc(F)cc2)C1c1ccc(OC)cc1 (centres undefined),2.27,0.195,> 100
O=c1c(-c2ccc(Cl)cc2Cl)c(C(F)(F)F)oc2c(CN3CCCCC3)c(O)ccc12,0.994,0.199,> 100

SMILES,EC50 [1] [µM],EC50 [2] [µM],CC50 [3] [µM]
COCCNC(=O)CN1C(=O)CC(C)(C)Sc2ccccc21,> 1.25,> 0.0198,> 10
Oc1ccc(-c2cccnc2)cc1CNC1C2CC3CC(C2)CC1C3 (centres undefined),0.459,0.195,> 100
O=C(COc1ccc(Cl)cc1)Nc1nnc(-c2ccc3c(c2)OCO3)s1,> 1.25,0.0267,> 13.8
CCOc1ccc(Nc2cc(C)nc3ccc(OCC)cc23)cc1,> 1.25,0.0203,> 10
Cc1ccnc(NC(c2ccc(Cl)cc2Cl)c2ccc3cccnc3c2O)c1 (centres undefined),0.296,0.12,60.1
CCOC(=O)c1cnc2ccc(OCC)cc2c1NCCCN(CC)CC,0.117,0.14,70.1
CCOC(=O)C1(Cc2ccc(OC)cc2)CCN(C(=O)c2scc3c2OCCO3)CC1,0.264,0.199,> 100
COc1ccc(OC)c(-c2ccc(O)c(CNCC3CC4C=CC3C43CC3)c2)c1 (centres undefined),0.35,0.0398,20.6
CCc1nn(-c2ccccc2)c2nc(-c3cc(Br)ccc3O)c3cc(OC)c(OC)cc3c12,0.466,0.192,> 100
O=c1c2ccccc2[nH]c2ccc(F)cc12,0.186,0.208,> 100
CCC(=O)NC(c1ccccc1Cl)c1cc(Cl)c2cccnc2c1O (centres undefined),0.232,0.0736,35.4
Cc1cc(N2CCN(C3CCCCC3)CC2)n2c(nc3ccccc32)c1C#N,0.0635,0.203,> 100
CN(CCCNc1ccnc2cc(Cl)ccc12)C(=O)CSc1ccccc1,0.00717,0.0203,> 10
Nc1cc(C(=O)Nc2ccc(C3=NCCN3)cc2)ccc1C(=O)Nc1ccc(C2=NCCN2)cc1,0.29,0.179,90.6
CCN(CC)CCCNc1ccnc2cc3ccccc3cc12,0.0338,0.0518,26.2
Cc1ccccc1NC(=O)N1CCN(C(=O)c2nc(-c3ccccc3)nc(C)c2C(=O)OC(C)C)CC1C (centres undefined),0.135,0.0995,51.9
CCCCNC(=O)N1CCN(C(=O)C(Cc2c[nH]c3ccccc23)NC(=O)Nc2cccc(C#N)c2)CC1C (centres undefined),0.153,0.191,> 100
COc1cccc(C2C(C(=O)Nc3ccc(C)cc3C)=C(C)Nc3c(C(=O)Nc4ccccc4)cnn32)c1 (centres undefined),0.59,0.19,> 100
CCOC(=O)C1=C(C)NC2=C(C(=O)CC(c3ccc(OC)cc3)C2)C1c1cccs1 (centres undefined),0.833,0.189,> 100
COc1ccc(OC)c(-c2ccc(O)c(CN(C)CC(O)c3ccccc3)c2)c1 (centres undefined),0.243,0.124,66.3
Cc1cc(Nc2cccc([N+](=O)[O-])c2)nc2cc(O)ccc12,0.672,0.0751,36.3
Cc1ccc(NC(c2ccccc2)(c2ccccc2)c2ccccc2)cc1C,0.439,0.207,> 100
CC(=NNc1nc(-c2ccccc2O)nc2ccccc12)c1ccccc1O,0.742,0.206,> 100

SMILES,EC50 [1] [µM],EC50 [2] [µM],CC50 [3] [µM]
COC(=O)C1=C(C)NC2=C(C(=O)CC(c3ccccc3)C2)C1c1cc(C)sc1SC (centres undefined),0.671,0.205,> 100
CC(=O)N(C1=C(N2CCCCC2)C(=O)c2ccccc2C1=O)c1ccc(F)c(F)c1,0.238,0.0947,47.7
COC(=O)c1ccc(N(C(=O)Cc2c[nH]c3ccccc23)C(C(=O)NC2CCCCC2)c2ccccc2F)cc1 (centres undefined),0.2,0.197,> 100
COc1ccc(CN2CCOc3ccc(C(C)(O)CN(C)C)cc3C2)cc1C (centres undefined),0.823,0.193,> 100
Cc1ccc(NC(=O)C2c3ccccc3C(=O)N(CC(C)C)C2c2cccs2)c(Cl)c1 (centres undefined),0.305,0.191,> 100
Cc1ccn2c(NC(C)(C)CC(C)(C)C)c(-c3ccccc3OC(=O)c3ccc(C(F)(F)F)cc3)nc2c1,0.847,0.0199,> 10
COc1ccc(C2CC(=O)C3=C(C2)NC(C)=C(C(=O)OC(C)C)C3c2cccc(Cl)c2)cc1OC (centres undefined),0.0713,0.0318,16.1
c1ccc(-c2nn(-c3ccccc3)[n+](-c3ccccc3)n2)cc1,0.296,0.207,> 100
Oc1ccc(-c2ccccc2)cc1CN1CCC(c2ccccc2)CC1,2.42,0.205,> 100
N=c1c2c(n(Cc3ccc(F)cc3)c3c1CCC3)CCC2,0.266,0.202,> 100
CCOC(=O)c1ccc(Nc2nc(N)c3cc(OC)c(OC)cc3n2)cc1,0.482,0.2,> 100
OC(CN1CCN(C/C=C/c2ccccc2)CC1)Cn1c2ccc(Br)cc2c2cc(Br)ccc21 (centres undefined),0.589,0.0192,> 10
COc1ccc(C2=C(Nc3ccc(Br)c(C)c3)c3ccccc3C2=O)cc1,0.185,0.202,> 100
COc1ccc(N=Nc2nc3ccc(Br)cc3n2C)cc1,0.197,0.199,> 100
Clc1ccc2c(N3CCCC3)ccnc2c1,0.283,0.124,64.5
OC(CN1CCN(Cc2ccccc2)CC1)Cn1c2ccc(Br)cc2c2cc(Br)ccc21 (centres undefined),0.296,0.0573,29
CC(C)COc1nc(-c2ccccc2)n(S(=O)(=O)c2cccc3cccnc23)n1,0.0423,0.00456,> 2.16
Cc1ccn2c(NC(C)(C)CC(C)(C)C)c(-c3ccccc3OC(=O)c3ccc(Br)cc3)nc2c1,0.74,0.148,75
NCC(=O)N1CCn2c(nc(-c3ccccc3)c2Nc2ccc3c(c2)OCO3)C1,0.162,0.198,> 100
O=C(c1ccc(N2CC3CC(C2)c2cccc(=O)n2C3)c(NS(=O)(=O)c2ccc3c(c2)OCCO3)c1)N1CCN(c2ccccn2)CC1 (centres undefined),2.02,0.194,> 100
Cc1ccn2c(NC(C)(C)CC(C)(C)C)c(-c3ccccc3OC(=O)C3CCCCC3)nc2c1,0.654,0.0187,> 10
Cc1ccn2c(NC(C)(C)CC(C)(C)C)c(-c3ccccc3OC(=O)CCCCl)nc2c1,0.753,0.0202,> 10
